Several values for one entry are separate records, joined by “and”; a condition that tells them apart may be missing. Equal entries are not always repeated. Some results are limits rather than exact numbers.

The target in data set [1] is T1, K-Ras G12V (Homo sapiens, UniProt P01116, G12V). Description: FA-based competition assay with DCAI. The class given is binding.
The next data set deals with K-Ras. As to conditions: read-out: KD, DCAI binding to K-Ras; cited from earlier work.
Data set [2] concerns H1299 cells. The data set can be described thus: Live-cell confocal microscopy of internalization. As to conditions: H1299, 5 μM FITC-labeled peptide, 2 h. In kind it is cell-based, human.
For data set [3], the target named is T1, K-Ras G12V. The data set can be described thus: Fluorescence anisotropy. In kind it is binding.
The test system of data set [4] is H1299 cells. The data set can be described thus: Cellular uptake by flow cytometry. In kind it is cell-based, human. For orientation: In flow cytometry, cells or beads pass a laser one at a time.
Data set [5] concerns H441 human lung cancer cells. The data set can be described thus: MTT cell viability assay, H441. The class given is cell-based. Particulars: 0-40 μM. In general terms: Tetrazolium dyes change colour on reduction, which living cells bring about.
A further data set relates to p-MEK. Description: Immunoblot of MEK phosphorylation in H1299 cells. Particulars: H1299, 0-18 μM for 12 h, EGF 50 ng/mL 10 min. The class given is cell-based, human. For orientation: Immunoblotting shows a protein as a band on a membrane.
In a further data set the test system is p-Akt at Thr308. Description: Immunoblot of Akt phosphorylation in H1299 cells. The class given is cell-based, human. As to conditions: H1299, 0-18 μM for 12 h, EGF 50 ng/mL 10 min.
Data set [6] concerns H1299 lung cancer cell line. The data set can be described thus: MTT cell viability assay, H1299. The class given is cell-based, human. Particulars: H1299 (Q61K N-Ras), 24 h.

For `Cc1[nH]c2cc(Cl)cc(Cl)c2c1CCN` [DCAI, 4,6-dichloro-2-methyl-3-aminoethylindole], at K-Ras G12V [1], the IC50 was determined as 840 ± 220 µM. Besides, on K-Ras, the Kd was 1100 µM and ~1100 µM.
As for “bicyclo [Tm-Ala-leu-Phe-Arg-asn-Pra-Ile-Asp-Lys-Phe-Nal-Arg-Arg-Arg-Arg-Dap]-Lys [peptide 54]”, the “internalization / intracellular distribution” value with H1299 cells [2] is listed as “largely similar intracellular distribution”. In addition, the “lower affinity than peptide 49” value at K-Ras G12V [3] (K-Ras G12V, peptide lacking the DCAI moiety) is roughly 80 fold. In addition, the Kd on K-Ras G12V [3] (read-out: KDapp, FA, FITC-labeled peptide 100 nM, K-Ras G12V as purified from E. coli, mixture of GTP- and GDP-bound forms) came to 17 ± 11 µM. Further, the “cell entry efficiency, fold lower than cFΦR4” value in the data set on H1299 cells [4] (H1299, 5 μM FITC-labeled peptide, 2 h) is roughly 3 fold. For the same compound, the cell permeability entry with H1299 cells [4] (tested for cellular uptake) was “readily cell permeable”. In [5], the “reduction in cell viability” value is recorded as “significant reduction in cell viability only at the highest inhibitor concentration tested”. The “reduction of EGF-induced p-MEK level” value with p-MEK is given as “no effect”. Also, the “reduction of EGF-induced p-Akt level” value in the data set with p-Akt at Thr308 is “no effect”. The compound further came in with an LD50 in data set [6] greater than 40 µM.

In general, IC50 refers to the concentration at which inhibition is half-maximal. A high value points to lower potency.
